Data reported in paper PMC2615555 (Virology, 2008).
pIC50: −log10 of the molar value.

Tests used:
[1] = target: T1, I-A^d (Mus musculus, UniProt P01921+P04228); experiment: biochemical; assay type: binding, BALB/c mouse
T1 sequence (P04228 24-256): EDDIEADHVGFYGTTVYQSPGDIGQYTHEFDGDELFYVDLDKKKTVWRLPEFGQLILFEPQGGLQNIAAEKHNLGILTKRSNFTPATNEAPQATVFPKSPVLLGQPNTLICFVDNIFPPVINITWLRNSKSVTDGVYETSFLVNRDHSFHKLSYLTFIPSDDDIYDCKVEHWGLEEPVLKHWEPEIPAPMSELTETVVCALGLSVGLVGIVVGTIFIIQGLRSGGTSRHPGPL
T1 sequence (P01921 28-265): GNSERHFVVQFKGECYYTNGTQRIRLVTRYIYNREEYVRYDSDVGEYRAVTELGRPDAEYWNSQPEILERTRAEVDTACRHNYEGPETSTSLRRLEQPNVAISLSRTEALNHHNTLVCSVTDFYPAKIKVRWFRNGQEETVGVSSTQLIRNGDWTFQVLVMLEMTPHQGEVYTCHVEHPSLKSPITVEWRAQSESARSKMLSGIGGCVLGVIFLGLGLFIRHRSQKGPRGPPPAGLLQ

[2] = target: T2, I-E^d (Mus musculus, UniProt P01904+P01915); experiment: biochemical; assay type: binding, BALB/c mouse
T2 sequence (P01904 26-255): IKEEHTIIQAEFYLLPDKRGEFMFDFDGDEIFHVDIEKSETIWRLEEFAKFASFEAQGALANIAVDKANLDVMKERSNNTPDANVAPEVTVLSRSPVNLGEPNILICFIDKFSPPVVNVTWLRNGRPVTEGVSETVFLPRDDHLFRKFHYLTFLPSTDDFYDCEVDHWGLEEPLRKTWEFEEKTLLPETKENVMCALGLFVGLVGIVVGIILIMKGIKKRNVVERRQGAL
T2 sequence (P01915 27-264 limits assumed): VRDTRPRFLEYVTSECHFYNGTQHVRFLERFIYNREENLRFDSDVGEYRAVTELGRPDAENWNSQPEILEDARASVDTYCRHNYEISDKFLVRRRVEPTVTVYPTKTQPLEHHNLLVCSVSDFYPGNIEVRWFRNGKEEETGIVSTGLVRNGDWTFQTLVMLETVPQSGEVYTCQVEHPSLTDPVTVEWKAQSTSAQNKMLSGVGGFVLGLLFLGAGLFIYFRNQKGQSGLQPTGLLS

[3] = Binding Assay IC50, I-A^d (membrane 15mers)
[4] = Binding Assay IC50, I-A^d (envelope 15mers)

Compound `CSCC[C@H](NC(=O)[C@H](CCCNC(=N)N)NC(=O)CNC(=O)[C@@H](NC(=O)[C@H](CCSC)NC(=O)[C@H](Cc1c[nH]c2ccccc12)NC(=O)[C@H](CCCCN)NC(=O)[C@@H](N)CCC(=O)O)[C@@H](C)O)C(=O)NCC(=O)N[C@@H](CCC(=O)O)C(=O)N[C@@H](CCCNC(=N)N)C(=O)N[C@@H](CCC(N)=O)C(=O)N[C@@H](CC(C)C)C(=O)N[C@@H](CCC(N)=O)C(=O)N[C@@H](CCCCN)C(=O)O` [M17–31] has a pIC50 [1, 3] of 4.69 and a pIC50 [2] of 4.68.

In the case of `CC[C@H](C)[C@H](NC(=O)[C@@H](NC(=O)[C@H](CC(C)C)NC(=O)[C@H](C)NC(=O)[C@@H](N)[C@@H](C)O)[C@@H](C)O)C(=O)N[C@@H](C)C(=O)N[C@@H](Cc1ccc(O)cc1)C(=O)N[C@@H](CC(C)C)C(=O)N[C@H](C(=O)NCC(=O)N[C@@H](CO)C(=O)N[C@@H](CC(N)=O)C(=O)N[C@@H](CCSC)C(=O)N[C@H](C(=O)N[C@@H](CCC(N)=O)C(=O)O)[C@@H](C)O)C(C)C` [M45–59], the pIC50 [1, 3] was 6.99 and the pIC50 [2] was < 4.35.

`CSCC[C@H](NC(=O)[C@H](Cc1c[nH]c2ccccc12)NC(=O)[C@H](CCCCN)NC(=O)[C@H](CCC(=O)O)NC(=O)[C@H](CCC(N)=O)NC(=O)[C@H](CCCNC(=N)N)NC(=O)[C@@H](NC(=O)[C@H](CCCCN)NC(=O)[C@H](CC(C)C)NC(=O)CNC(=O)[C@H](Cc1c[nH]cn1)NC(=O)[C@@H](N)CC(N)=O)[C@@H](C)O)C(=O)N[C@H](C(=O)NCC(=O)N[C@@H](CCCNC(=N)N)C(=O)O)[C@@H](C)O` [M9–23] was tested, and the pIC50 [1, 3] was 4.39 and the pIC50 [2] was < 4.35.

In the case of `CC[C@H](C)[C@H](NC(=O)[C@H](CCCCN)NC(=O)[C@@H](N)[C@@H](C)O)C(=O)N[C@@H](CCC(N)=O)C(=O)N[C@@H](Cc1ccc(O)cc1)C(=O)N[C@H](C(=O)N[C@H](C(=O)N[C@@H](CCCNC(=N)N)C(=O)N[C@@H](C)C(=O)N[C@@H](CCC(N)=O)C(=O)N[C@@H](CC(C)C)C(=O)N[C@@H](Cc1c[nH]cn1)C(=O)N[C@H](C(=O)NCC(=O)N[C@@H](C)C(=O)O)C(C)C)[C@@H](C)CC)C(C)C` [E133–147], the pIC50 [1, 4] was > 6.00.

Compound `CC[C@H](C)[C@H](NC(=O)[C@@H](NC(=O)[C@@H](NC(=O)[C@H](CCCNC(=N)N)NC(=O)[C@H](CCC(N)=O)NC(=O)[C@@H](NC(=O)[C@H](CCSC)NC(=O)[C@H](CC(N)=O)NC(=O)[C@H](CO)NC(=O)CNC(=O)[C@@H](N)C(C)C)[C@@H](C)O)C(C)C)C(C)C)C(=O)N[C@@H](C)C(=O)N[C@@H](CC(C)C)C(=O)N[C@@H](CC(C)C)C(=O)N[C@H](C(=O)O)C(C)C` [M53–67] has a pIC50 [1, 3] of 7.52 and a pIC50 [2] of 4.49.

For `CC[C@H](C)[C@H](NC(=O)[C@H](CCCCN)NC(=O)[C@H](CCC(N)=O)NC(=O)[C@H](CC(C)C)NC(=O)[C@H](CCC(N)=O)NC(=O)[C@H](CCCNC(=N)N)NC(=O)[C@H](CCC(=O)O)NC(=O)CNC(=O)[C@H](CCSC)NC(=O)[C@H](CCCNC(=N)N)NC(=O)CNC(=O)[C@@H](N)[C@@H](C)O)C(=O)N[C@@H](CCC(=O)O)C(=O)N[C@@H](CCCNC(=N)N)C(=O)N[C@@H](Cc1c[nH]c2ccccc12)C(=O)O` [M21–35], the pIC50 [1, 3] was 4.37 and the pIC50 [2] was < 4.35.

In the case of `CC[C@H](C)[C@H](NC(=O)CN)C(=O)N[C@@H](CC(N)=O)C(=O)N[C@H](C(=O)N[C@@H](CCCNC(=N)N)C(=O)N[C@@H](CC(N)=O)C(=O)N[C@@H](CCSC)C(=O)N[C@H](C(=O)N[C@@H](CCSC)C(=O)N[C@@H](CO)C(=O)N[C@@H](CCSC)C(=O)N[C@@H](CO)C(=O)N[C@@H](CCSC)C(=O)N[C@H](C(=O)N[C@@H](CC(C)C)C(=O)O)[C@@H](C)CC)[C@@H](C)O)[C@@H](C)O` [E465–479], the pIC50 [1, 4] was > 6.00.

`CC[C@H](C)[C@H](NC(=O)[C@H](CCCCN)NC(=O)[C@H](CCC(N)=O)NC(=O)[C@H](CC(C)C)NC(=O)[C@H](CCC(N)=O)NC(=O)[C@H](CCCNC(=N)N)NC(=O)[C@H](CCC(=O)O)NC(=O)CN)C(=O)N[C@@H](CCC(=O)O)C(=O)N[C@@H](CCCNC(=N)N)C(=O)N[C@@H](Cc1c[nH]c2ccccc12)C(=O)N[C@@H](Cc1ccccc1)C(=O)N[C@H](C(=O)N[C@@H](CCCNC(=N)N)C(=O)N[C@@H](CC(N)=O)C(=O)O)C(C)C` [M25–39] was tested, and the pIC50 [1, 3] was < 4.35 and the pIC50 [2] was 4.88.

In the case of `CC[C@H](C)[C@H](NC(=O)[C@@H](NC(=O)[C@H](C)NC(=O)[C@H](C)NC(=O)[C@H](Cc1c[nH]cn1)NC(=O)[C@@H]1CCCN1)[C@@H](C)O)C(=O)N[C@@H](CCCNC(=N)N)C(=O)N[C@H](C(=O)N[C@@H](CC(C)C)C(=O)N[C@@H](C)C(=O)N[C@@H](CC(C)C)C(=O)NCC(=O)N[C@@H](CC(N)=O)C(=O)N[C@@H](CCC(N)=O)C(=O)N[C@@H](CCC(=O)O)C(=O)O)C(C)C` [E237–251], the pIC50 [1, 4] was > 6.00.

In the case of `CC[C@H](C)[C@H](NC(=O)[C@H](CCCCN)NC(=O)[C@@H](NC(=O)[C@H](CCC(N)=O)NC(=O)[C@H](CC(=O)O)NC(=O)[C@@H](NC(=O)[C@@H](N)CCC(=O)O)C(C)C)[C@@H](C)O)C(=O)N[C@@H](CCC(N)=O)C(=O)N[C@@H](Cc1ccc(O)cc1)C(=O)N[C@H](C(=O)N[C@H](C(=O)N[C@@H](CCCNC(=N)N)C(=O)N[C@@H](C)C(=O)N[C@@H](CCC(N)=O)C(=O)N[C@@H](CC(C)C)C(=O)O)[C@@H](C)CC)C(C)C` [E129–143], the pIC50 [1, 4] was > 6.00.

With `CC[C@H](C)[C@H](NC(=O)[C@@H](NC(=O)[C@@H](NC(=O)[C@H](CCCNC(=N)N)NC(=O)[C@H](CCC(N)=O)NC(=O)[C@@H](NC(=O)[C@@H](N)CCSC)[C@@H](C)O)C(C)C)C(C)C)C(=O)N[C@@H](C)C(=O)N[C@@H](CC(C)C)C(=O)N[C@@H](CC(C)C)C(=O)N[C@H](C(=O)N[C@@H](CC(C)C)C(=O)N[C@@H](C)C(=O)N[C@H](C(=O)NCC(=O)O)C(C)C)C(C)C` [M57–71] the pIC50 [1, 3] was 5.19 and the pIC50 [2] was < 4.35.

With `CC[C@H](C)[C@H](NC(=O)[C@H](C)N)C(=O)N[C@@H](CC(=O)O)C(=O)N[C@@H](CC(C)C)C(=O)N1CCC[C@H]1C(=O)N[C@H](C(=O)N[C@@H](Cc1c[nH]cn1)C(=O)N[C@@H](CCC(=O)O)C(=O)N[C@@H](CC(N)=O)C(=O)N[C@@H](Cc1c[nH]cn1)C(=O)NCC(=O)N[C@@H](CC(C)C)C(=O)N[C@@H](CCCCN)C(=O)N[C@H](C(=O)N[C@@H](CCCNC(=N)N)C(=O)O)[C@@H](C)O)[C@@H](C)O` [M1–15] the pIC50 [1, 3] was < 4.35 and the pIC50 [2] was 4.44.

For `CC(C)C[C@H](NC(=O)[C@H](C)NC(=O)[C@@H](NC(=O)[C@@H](NC(=O)[C@H](C)NC(=O)[C@H](Cc1ccccc1)NC(=O)[C@H](Cc1ccccc1)NC(=O)[C@@H]1CCCN1C(=O)[C@H](CC(N)=O)NC(=O)[C@H](CCCNC(=N)N)NC(=O)[C@@H](NC(=O)[C@H](Cc1ccccc1)NC(=O)[C@H](Cc1c[nH]c2ccccc12)NC(=O)[C@H](CCCNC(=N)N)NC(=O)[C@@H](N)CCC(=O)O)C(C)C)C(C)C)[C@@H](C)O)C(=O)O` [M33–47], the pIC50 [1, 3] was 8.14 and the pIC50 [2] was 5.64.

With `CC[C@H](C)[C@H](NC(=O)[C@@H](NC(=O)[C@@H](N)C(C)C)C(C)C)C(=O)N[C@@H](C)C(=O)N[C@@H](CC(C)C)C(=O)N[C@@H](CC(C)C)C(=O)N[C@H](C(=O)N[C@@H](CC(C)C)C(=O)N[C@@H](C)C(=O)N[C@H](C(=O)NCC(=O)N1CCC[C@H]1C(=O)N[C@@H](C)C(=O)N[C@@H](Cc1ccc(O)cc1)C(=O)N[C@@H](CO)C(=O)O)C(C)C)C(C)C` [M61–75] the pIC50 [1, 3] was 6.42 and the pIC50 [2] was < 4.35.

For `CC[C@H](C)[C@H](N)C(=O)N[C@@H](C)C(=O)N[C@@H](Cc1ccc(O)cc1)C(=O)N[C@@H](CC(C)C)C(=O)N[C@H](C(=O)NCC(=O)N[C@@H](CO)C(=O)N[C@@H](CC(N)=O)C(=O)N[C@@H](CCSC)C(=O)N[C@H](C(=O)N[C@@H](CCC(N)=O)C(=O)N[C@@H](CCCNC(=N)N)C(=O)N[C@H](C(=O)N[C@H](C(=O)N[C@H](C(=O)O)[C@@H](C)CC)C(C)C)C(C)C)[C@@H](C)O)C(C)C` [M49–63], the pIC50 [1, 3] was 6.42 and the pIC50 [2] was 4.53.

In the case of `CSCC[C@H](NC(=O)[C@H](CC(C)C)NC(=O)[C@H](CO)NC(=O)[C@H](C)NC(=O)[C@@H](NC(=O)[C@@H](NC(=O)[C@H](CCCNC(=N)N)NC(=O)[C@H](CCCCN)NC(=O)[C@@H](NC(=O)[C@H](CCCCN)NC(=O)[C@H](CCCNC(=N)N)NC(=O)[C@H](CC(C)C)NC(=O)[C@@H](NC(=O)[C@H](C)NC(=O)[C@@H](N)CC(C)C)C(C)C)C(C)C)C(C)C)C(C)C)C(=O)O` [C77–91], the “Binding Assay IC50, I-A^d (capsid 15mers)” value [1] was “high affinity”.

With `CSCC[C@H](NC(=O)[C@H](CC(C)C)NC(=O)[C@H](CO)NC(=O)[C@H](C)NC(=O)[C@@H](NC(=O)[C@@H](NC(=O)[C@H](CCCNC(=N)N)NC(=O)[C@H](CCCCN)NC(=O)[C@@H](NC(=O)[C@H](CCCCN)NC(=O)[C@@H](N)CCCNC(=N)N)C(C)C)C(C)C)C(C)C)C(=O)N[C@@H](CCCNC(=N)N)C(=O)NCC(=O)N[C@@H](CC(C)C)C(=O)N[C@@H](CO)C(=O)O` [C81–95] the “Binding Assay IC50, I-A^d (capsid 15mers)” value [1] was “high affinity”.
